This is an account of results in ChEMBL document CHEMBL1156774, “Design of O-acetylserine sulfhydrylase inhibitors by mimicking nature” (J Med Chem, 2010).

The target in test [1] is T1, Cysteine synthase (Haemophilus influenzae (strain ATCC 51907 / DSM 11121 / KW20 / Rd)) (UniProt P45040).
T1 sequence (whole entry): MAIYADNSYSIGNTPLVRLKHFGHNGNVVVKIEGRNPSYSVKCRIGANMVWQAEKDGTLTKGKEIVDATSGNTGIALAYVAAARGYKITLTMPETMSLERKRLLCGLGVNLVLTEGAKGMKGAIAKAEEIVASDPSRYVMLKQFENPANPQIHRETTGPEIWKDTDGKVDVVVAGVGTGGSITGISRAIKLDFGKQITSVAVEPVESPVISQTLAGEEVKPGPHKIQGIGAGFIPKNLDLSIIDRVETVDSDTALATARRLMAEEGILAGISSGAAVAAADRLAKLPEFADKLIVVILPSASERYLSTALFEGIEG
As to the kind of experiment: (§1) Binding affinity to Haemophilus influenzae O-acetylserine sulfhydrylase expressed in Escherichia coli BL21 (DE3) by fluorescence emission spectra analysis.

For a further test, the target named is T2, Cysteine synthase (Haemophilus influenzae (strain ATCC 51907 / DSM 11121 / KW20 / Rd), UniProt P45040).
T2 sequence (P45040 whole entry): T1 sequence (whole entry)
The description is as §1.

For orientation: Kd means a measure of binding affinity in units of concentration. Low values mean tighter binding, high ones weaker binding. In test [1], H-MNDGI-OH yielded a Kdiss of 1030 µM. The substance also showed a Kd at Cysteine synthase of 1.02 mM.
The like results for H-MNEGI-OH were, in that order, 2270 µM and 2.29 mM.
As to H-MNLGI-OH, in test [1], the Kdiss was determined as 570 µM. For the same substance, the Kd at Cysteine synthase is 0.575 mM.
The like results for H-MNVPI-OH were, in that order, 3330 µM and 3.31 mM.
Taken in the same sequence, the figures for H-MNYSI-OH were 60.8 µM and 0.0603 mM.
